≈ marks a conversion by molar mass, not a printed value. Where “and” joins values, the source holds several entries; their conditions need not be identical. Identical values can stand only once. Like-named read-outs stand apart in the source and are kept apart here. Numbered stars: 1 amine (or outer) side, 2 acyl side, 3 side chain; on linkers, the order of the positions; unused ones are H or OH. Bridge positions count the residues as written; N and C are the ends. Square brackets hold non-standard residues; d marks the D form. Peptide text beside a SMILES is read from it. * marks the point of attachment. ξ: configuration not given here. X1 = CCC1CC(C(=O)[*:2])N([*:1])C1; Butanoyl(2-oxo) = CCC(=O)C(=O)*; ξPro(4ξ-Me) = CC1CNC(C(=O)O)C1; NMeT = CN[CH](C(=O)O)[CH](C)O; NMeL = CN[CH](CC(C)C)C(=O)O; hLeu = CC(C)CC[CH](N)C(=O)O; NMeV = CN[CH](C(=O)O)C(C)C
Experiments:
[1] = system: M. tuberculosis (Mtb) strain H37Ra; test: microbe, parasite or virus in culture; type: cell-based; conditions: Mycobacterium tuberculosis, read-out: MIC Mtb H37Ra
[2] = system: M. tuberculosis (Mtb) strain H37Rv; test: microbe, parasite or virus in culture; type: cell-based, Mycobacterium tuberculosis
[3] = system: M. smegmatis (Msmeg) strain mc^2155; test: microbe, parasite or virus in culture; type: cell-based; conditions: Mycolicibacterium smegmatis, MC^2155, read-out: MIC M. smegmatis mc^2155
[4] = system: M. smegmatis mc^2155 GM^R; test: microbe, parasite or virus in culture; type: cell-based; conditions: Mycolicibacterium smegmatis, MC^2155, read-out: MIC M. smegmatis mc^2155 GM^R
[5] = system: M. marinum (Mm) strain M (ATCC BAA-535); test: microbe, parasite or virus in culture; type: cell-based; conditions: Mycobacterium marinum, ATCCBAA535, read-out: MIC M. marinum strain M
CHO-K1 cells = test: cells; type: cell-based, Chinese hamster (Cricetulus griseus); conditions: Cricetulus griseus, CHO-K1, 120 h, read-out: IC50 CHO-K1
[6] = target: M. smegmatis DnaN (msDnaN) (Mycolicibacterium smegmatis, UniProt A0QND6); test: biochemical; type: binding; conditions: for Response (Average): MST source data, runs #1-#3, listed as MP A
Sequence of M. smegmatis DnaN (msDnaN) (A0QND6 whole entry, looked up): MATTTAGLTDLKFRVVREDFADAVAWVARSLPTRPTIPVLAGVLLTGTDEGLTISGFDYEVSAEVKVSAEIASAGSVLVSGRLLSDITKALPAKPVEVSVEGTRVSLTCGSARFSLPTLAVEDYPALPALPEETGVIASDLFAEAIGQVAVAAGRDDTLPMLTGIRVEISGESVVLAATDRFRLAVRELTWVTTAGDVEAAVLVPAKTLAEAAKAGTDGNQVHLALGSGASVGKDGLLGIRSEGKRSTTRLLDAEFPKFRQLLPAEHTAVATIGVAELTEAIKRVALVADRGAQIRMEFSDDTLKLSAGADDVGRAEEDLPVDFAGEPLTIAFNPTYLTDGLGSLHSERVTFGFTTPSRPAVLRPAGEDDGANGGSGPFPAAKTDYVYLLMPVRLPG

S. aureus Newman = test: microbe, parasite or virus in culture; type: cell-based; conditions: Staphylococcus aureus, read-out: MIC S. aureus Newman
B. subtilis DSM 10 = test: microbe, parasite or virus in culture; type: cell-based; conditions: Bacillus subtilis, DSM10, read-out: MIC B. subtilis DSM 10
E. coli BW25113 = test: microbe, parasite or virus in culture; type: cell-based; conditions: Escherichia coli, BW25113, read-out: MIC E. coli BW25113
C. freundii DSM 30039 = test: microbe, parasite or virus in culture; type: cell-based; conditions: Citrobacter freundii, DSM30039, read-out: MIC C. freundii DSM 30039
A. baumannii DSM 30008 = test: microbe, parasite or virus in culture; type: cell-based; conditions: Acinetobacter baumannii, DSM30008, read-out: MIC A. baumannii DSM 30008
[7] = system: M. smegmatis mc^2155 reporter strain harboring PrecA-LUX; conditions: for luminescence induction: RecA reporter, ciprofloxacin 0.06 µg/mL, MPA 0.125 µg/mL
[8] = system: M. smegmatis mc^2155 reporter strain harboring PradA-LUX; conditions: for luminescence induction: RadA reporter, ciprofloxacin 0.06 µg/mL, MPA 0.125 µg/mL
[9] = system: M. tuberculosis (Mtb) strain H37Rv; conditions: cited from earlier work

CCC(=O)C(=O)N(C)C(C(=O)N1CC(CC)CC1C(=O)N(C)C1C(=O)NC(CC(C)C)C(=O)N2CC(C)CC2C(=O)NC(CCC(C)C)C(=O)N(C)C(C(C)C)C(=O)N2CCCC2C(=O)N(C)C(CC(C)C)C(=O)NCC(=O)OC1C)C(C)C (centres unmarked) [Mycoplanecin A] ({Butanoyl(2-oxo)}-[NMeV][X1][NMeT]L[ξPro(4ξ-Me)][hLeu][NMeV]P[NMeL]G; ester 3-C; configuration not given here)
MIC [1]: 0.03 µg/mL (≈ 0.0253 µM)
lower MIC against Mtb H37Rv than initially reported [2]: four-fold
MIC ([2]; Mycobacterium tuberculosis, H37RV, read-out: MIC Mtb H37Rv): 0.102 µg/mL (≈ 0.0862 µM)
MIC [3]: 0.0625 µg/mL (≈ 0.0528 µM)
MIC [4]: 4 µg/mL (≈ 3.38 µM)
MIC [5]: 0.5 µg/mL (≈ 0.422 µM)
IC50 (CHO-K1 cells): > 37 µg/mL
Kd [6]: 95.4 ± 58 nM
Response (Average) ([6]; Dose 1.22E-08 (unit not given)): 901.8 and 900.043 and 900.321
Response (Average) ([6]; Dose 1.25E-05 (unit not given)): 916.3 and 910.333 and 908.121
Response (Average) ([6]; Dose 1.53E-09 (unit not given)): 900.5 and 901.137 and 897.639
Response (Average) ([6]; Dose 1.56E-06 (unit not given)): 912 and 910.977 and 908.315
Response (Average) ([6]; Dose 1.95E-07 (unit not given)): 911.4 and 903.026 and 901.872
Response (Average) ([6]; Dose 2.44E-08 (unit not given)): 900.5 and 898.574 and 901.47
Response (Average) ([6]; Dose 2.50E-05 (unit not given)): 912.5 and 912.466 and 910.671
Response (Average) ([6]; Dose 3.05E-09 (unit not given)): 907.2 and 900.824 and 900.843
Response (Average) ([6]; Dose 3.13E-06 (unit not given)): 913.2 and 908.487 and 910.005
Response (Average) ([6]; Dose 3.91E-07 (unit not given)): 910.5 and 900.599 and 903.733
Response (Average) ([6]; Dose 4.88E-08 (unit not given)): 904.4 and 896.349 and 895.973
Response (Average) ([6]; Dose 5.00E-05 (unit not given)): 912 and 911.551 and 911.531
Response (Average) ([6]; Dose 6.10E-09 (unit not given)): 899.2 and 900.167 and 896.514
Response (Average) ([6]; Dose 6.25E-06 (unit not given)): 912 and 910.662 and 909.72
Response (Average) ([6]; Dose 7.81E-07 (unit not given)): 913.8 and 908.369 and 909.33
Response (Average) ([6]; Dose 9.77E-08 (unit not given)): 902.5 and 896.716 and 900.856
MIC (S. aureus Newman): > 64 µg/mL
MIC (B. subtilis DSM 10): > 64 µg/mL
MIC (E. coli BW25113): > 64 µg/mL
MIC (C. freundii DSM 30039): > 64 µg/mL
MIC (A. baumannii DSM 30008): > 64 µg/mL
induction of SOS response through RecA (luminescence) ([7]; 2x MIC, listed as MP A): Strong induction of luminescence
luminescence induction ([7]; elapsed time 0:00:00): 1234 RLU
luminescence induction ([7]; elapsed time 3:00:00): 8420 RLU
luminescence induction ([7]; elapsed time 6:00:00): 19572 RLU
luminescence induction ([7]; elapsed time 9:00:00): 19402 RLU
luminescence induction ([7]; elapsed time 12:00:00): 19729 RLU
luminescence induction ([7]; elapsed time 15:00:00): 23383 RLU
luminescence induction ([7]; elapsed time 18:00:00): 24012 RLU
luminescence induction ([7]; elapsed time 21:00:00): 23254 RLU
luminescence induction ([7]; elapsed time 24:00:00): 21764 RLU
luminescence induction ([7]; elapsed time 27:00:00): 21831 RLU
luminescence induction ([7]; elapsed time 30:00:00): 22602 RLU
luminescence induction ([7]; elapsed time 33:00:00): 24786 RLU
luminescence induction ([7]; elapsed time 36:00:00): 30979 RLU
luminescence induction ([7]; elapsed time 39:00:00): 43998 RLU
luminescence induction ([7]; elapsed time 42:00:00): 72104 RLU
luminescence induction ([7]; elapsed time 45:00:00): 126348 RLU
luminescence induction ([7]; elapsed time 48:00:00): 167800 RLU
luminescence induction ([7]; elapsed time 51:00:00): 276102 RLU
luminescence induction ([7]; elapsed time 54:00:00): 398120 RLU
luminescence induction ([7]; elapsed time 57:00:00): 382129 RLU
luminescence induction ([7]; elapsed time 60:00:00): 236913 RLU
luminescence induction ([7]; elapsed time 63:00:00): 123029 RLU
luminescence induction ([7]; elapsed time 66:00:00): 65825 RLU
luminescence induction ([7]; elapsed time 69:00:00): 39152 RLU
luminescence induction ([7]; elapsed time 72:00:00): 26573 RLU
luminescence induction ([7]; elapsed time 75:00:00): 20127 RLU
luminescence induction ([7]; elapsed time 78:00:00): 16583 RLU
luminescence induction ([7]; elapsed time 81:00:00): 14319 RLU
luminescence induction ([7]; elapsed time 84:00:00): 12316 RLU
luminescence induction ([7]; elapsed time 87:00:00): 11375 RLU
induction of DNA repair through RadA (luminescence) ([8]; 2x MIC, listed as MP A): Strong induction of luminescence
luminescence induction ([8]; elapsed time 0:00:00): 121 RLU
luminescence induction ([8]; elapsed time 3:00:00): 1545 RLU
luminescence induction ([8]; elapsed time 6:00:00): 2517 RLU
luminescence induction ([8]; elapsed time 9:00:00): 2232 RLU
luminescence induction ([8]; elapsed time 12:00:00): 2473 RLU
luminescence induction ([8]; elapsed time 15:00:00): 2636 RLU
luminescence induction ([8]; elapsed time 18:00:00): 2684 RLU
luminescence induction ([8]; elapsed time 21:00:00): 2416 RLU
luminescence induction ([8]; elapsed time 24:00:00): 2295 RLU
luminescence induction ([8]; elapsed time 27:00:00): 2095 RLU
luminescence induction ([8]; elapsed time 30:00:00): 2147 RLU
luminescence induction ([8]; elapsed time 33:00:00): 2090 RLU
luminescence induction ([8]; elapsed time 36:00:00): 2617 RLU
luminescence induction ([8]; elapsed time 39:00:00): 3126 RLU
luminescence induction ([8]; elapsed time 42:00:00): 4043 RLU
luminescence induction ([8]; elapsed time 45:00:00): 5111 RLU
luminescence induction ([8]; elapsed time 48:00:00): 7463 RLU
luminescence induction ([8]; elapsed time 51:00:00): 8233 RLU
luminescence induction ([8]; elapsed time 54:00:00): 11519 RLU
luminescence induction ([8]; elapsed time 57:00:00): 17058 RLU
luminescence induction ([8]; elapsed time 60:00:00): 25987 RLU
luminescence induction ([8]; elapsed time 63:00:00): 36814 RLU
luminescence induction ([8]; elapsed time 66:00:00): 80633 RLU
luminescence induction ([8]; elapsed time 69:00:00): 73655 RLU
luminescence induction ([8]; elapsed time 72:00:00): 45431 RLU
luminescence induction ([8]; elapsed time 75:00:00): 26035 RLU
luminescence induction ([8]; elapsed time 78:00:00): 15293 RLU
luminescence induction ([8]; elapsed time 81:00:00): 10478 RLU
luminescence induction ([8]; elapsed time 84:00:00): 7153 RLU
luminescence induction ([8]; elapsed time 87:00:00): 4415 RLU
MIC against Mtb H37Rv initially reported [9]: 0.39 µg/mL (≈ 0.33 µM)

Source: paper PMC10817943 (Nature Communications, 2024)
